We go through 24 compounds from PubChem BioAssay AID330 (DTP/NCI, 2004).

The test system of this assay is P388 leukemia ip, CD2F1 mice, survival T/C. Description: NCI In Vivo Anticancer Drug Screen. Data for tumor model P388 Leukemia (intraperitoneal) in CD2F1 (CDF1) mice. Conditions: endpoint: median survival time, higher = longer survival. Put shortly:
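Mice carrying the transplanted tumor received test compound or vehicle. Survival was recorded in each group, and the value is the treated-group measurement divided by that of the vehicle-treated control group.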

Where [1] appears, read: dose: 50.0 mg/kg/injection, schedule: Q01DX009 (ip), vehicle: distilled water + Tween-80.
[2] abbreviates: dose: 50.0 mg/kg/injection, schedule: Q01DX009 (ip), vehicle: saline with Tween-80.
The mark [3] stands for this setting: dose: 100.0 mg/kg/injection, schedule: Q01DX009 (ip), vehicle: saline with Tween-80.
Setting [4] is: dose: 200.0 mg/kg/injection, schedule: Q01DX009 (ip), vehicle: saline with Tween-80.
[5] abbreviates: dose: 50.0 mg/kg/injection, schedule: Q01DX005 (ip), vehicle: saline with Tween-80.
Setting [6] is: dose: 100.0 mg/kg/injection, schedule: Q01DX005 (ip), vehicle: saline with Tween-80.
[7] abbreviates: dose: 200.0 mg/kg/injection, schedule: Q01DX005 (ip), vehicle: saline with Tween-80.
[8] abbreviates: dose: 60.0 mg/kg/injection, schedule: Q01DX005 (ip), vehicle: saline.
Where [9] appears, read: dose: 120.0 mg/kg/injection, schedule: Q01DX005 (ip), vehicle: saline.
Setting [10] is: dose: 240.0 mg/kg/injection, schedule: Q01DX005 (ip), vehicle: saline.
Setting [11] is: dose: 25.0 mg/kg/injection, schedule: Q01DX009 (ip), vehicle: saline with Tween-80.
The mark [12] stands for this setting: dose: 60.0 mg/kg/injection, schedule: Q01DX005 (ip), vehicle: saline with Tween-80.
Where [13] appears, read: dose: 120.0 mg/kg/injection, schedule: Q01DX005 (ip), vehicle: saline with Tween-80.
[14] abbreviates: dose: 240.0 mg/kg/injection, schedule: Q01DX005 (ip), vehicle: saline with Tween-80.

Several values for one entry are separate records, joined by “and”; a condition that tells them apart may be missing. Identical values can stand only once. Inconclusive results and toxic doses are left out.

As to `C=CC1=C(C)c2cc3[n-]c(c(CC(=O)O)c4nc(cc5[n-]c(cc1n2)c(C)c5CC)C(C)=C4C(=O)O)C(CCC(=O)O)C3C.[Pt+2]` (configuration not stated), the T/C by setting is: (dose: 25.0 mg/kg/injection, schedule: Q04DX002 (ip), vehicle: saline) 96 % of control; (dose: 50.0 mg/kg/injection, schedule: Q04DX002 (ip), vehicle: saline) 99 % of control; (dose: 100.0 mg/kg/injection, schedule: Q04DX002 (ip), vehicle: saline) 97 % of control; (dose: 200.0 mg/kg/injection, schedule: Q04DX002 (ip), vehicle: saline) 88 % of control; (dose: 400.0 mg/kg/injection, schedule: Q04DX002 (ip), vehicle: saline) 90 % of control.
Turning to `BrC1=CC(Br)=C2N=C(N3CCCC3)N=C3N=C(N4CCCC4)N=C1N32`, the T/C runs as follows: (dose: 3.75 mg/kg/injection, schedule: Q01DX005 (ip), vehicle: Klucel + Tween-80) 97 % of control; (dose: 7.5 mg/kg/injection, schedule: Q01DX005 (ip), vehicle: Klucel + Tween-80) 97 % of control; (dose: 15.0 mg/kg/injection, schedule: Q01DX005 (ip), vehicle: Klucel + Tween-80) 89 % of control and 90 % of control; (dose: 60.0 mg/kg/injection, schedule: Q01DX005 (ip), vehicle: Klucel + Tween-80) 86 % of control.
Regarding `CC(O)CNC1=C(Cl)C(=O)c2ccccc2C1=O` (configuration not stated), the T/C is 100 % of control (dose: 12.5 mg/kg/injection, schedule: Q01DX009 (ip), vehicle: distilled water + Tween-80); 103 % of control (dose: 25.0 mg/kg/injection, schedule: Q01DX009 (ip), vehicle: distilled water + Tween-80); 100 % of control under setting [1]; 98 % of control (dose: 100.0 mg/kg/injection, schedule: Q01DX009 (ip), vehicle: distilled water + Tween-80); 92 % of control (dose: 200.0 mg/kg/injection, schedule: Q01DX009 (ip), vehicle: distilled water + Tween-80).
For `CC(=O)CC(=O)c1ccc(F)cc1.CC(=O)CC(=O)c1ccc(F)cc1.[Cu]`, the T/C is 88 % of control (dose: 10.0 mg/kg/injection, schedule: Q01DX009 (ip), vehicle: saline with Tween-80) and 89 % of control (dose: 20.0 mg/kg/injection, schedule: Q01DX009 (ip), vehicle: saline with Tween-80).
Turning to `CN(C)/C=C(\C#N)C=O`, the T/C is, setting by setting: (dose: 18.75 mg/kg/injection, schedule: Q01DX009 (ip), vehicle: saline sonified) 118 % of control; (dose: 37.5 mg/kg/injection, schedule: Q01DX009 (ip), vehicle: saline sonified) 109 % of control.
Turning to `S=C(Nc1ccccc1)Nc1nccs1`, the T/C is 108 % of control under setting [2], 107 % of control under setting [3] and 117 % of control under setting [4].
Regarding `COC(=O)NC1(NC(=O)OC)NC(=O)c2cc(OC)c(OC)cc2N1`, the T/C by setting is: (dose: 25.0 mg/kg/injection, schedule: Q01DX005 (ip), vehicle: saline with Tween-80) 102 % of control; under setting [5], 99 % of control; under setting [6], 98 % of control; under setting [7], 118 % of control.
Consider `CNC(=O)OCc1c(COC(=O)NC)c(-c2ccc(F)cc2)n(C)c1C`, for which the T/C under setting [1] was 91 % of control.
As for `C=C1CCC2(C)C(O)CC3(C)C(CCC4C5(C)CCC(OC(C)=O)C(C)(C)C5CCC43C)C2C1C` (configuration not stated), the T/C (dose: 1.0 mg/kg/injection, schedule: Q01DX009 (ip), vehicle: alcohol) was 107 % of control; the T/C (dose: 2.0 mg/kg/injection, schedule: Q01DX009 (ip), vehicle: alcohol) is 105 % of control; the T/C (dose: 4.0 mg/kg/injection, schedule: Q01DX009 (ip), vehicle: alcohol) was 115 % of control.
Consider `CCC(=O)Oc1ccccc1C`, for which the T/C by setting is: (dose: 12.5 mg/kg/injection, schedule: Q04DX003 (ip), vehicle: saline with Tween-80) 103 % of control; (dose: 25.0 mg/kg/injection, schedule: Q04DX003 (ip), vehicle: saline with Tween-80) 105 % of control; (dose: 50.0 mg/kg/injection, schedule: Q04DX003 (ip), vehicle: saline with Tween-80) 103 % of control; (dose: 100.0 mg/kg/injection, schedule: Q04DX003 (ip), vehicle: saline with Tween-80) 103 % of control.
For `CCOC(=O)C1N=C(OCC)C(C)N=C1OCC` (configuration not stated), the T/C is, setting by setting: under setting [8], 101 % of control; under setting [9], 102 % of control; under setting [10], 100 % of control.
Consider `O=[N+]([O-])c1ccc(S(=O)C2CCCCC2Cl)c([N+](=O)[O-])c1` (configuration not stated), for which the T/C by setting is: (dose: 100.0 mg/kg/injection, schedule: Q04DX002 (ip), vehicle: Klucel (hydroxypropylcellulose) (HPC)) 110 % of control; (dose: 200.0 mg/kg/injection, schedule: Q04DX002 (ip), vehicle: Klucel (hydroxypropylcellulose) (HPC)) 113 % of control.
For `O=S(=O)(C(Br)CBr)C(Br)CBr` (configuration not stated), the T/C is 113 % of control (dose: 6.25 mg/kg/injection, schedule: Q01DX009 (ip), vehicle: saline with Tween-80); 118 % of control (dose: 12.5 mg/kg/injection, schedule: Q01DX009 (ip), vehicle: saline with Tween-80); 122 % of control under setting [11].
`CCN(CC)CCN1C(=O)c2cccc3cc([N+](=O)[O-])cc(c23)C1=O`: the T/C runs as follows: (dose: 12.5 mg/kg/injection, schedule: Q01DX005 (ip), vehicle: Klucel (hydroxypropylcellulose) (HPC)) 107 % of control; (dose: 25.0 mg/kg/injection, schedule: Q01DX005 (ip), vehicle: Klucel (hydroxypropylcellulose) (HPC)) 124 % of control; (dose: 50.0 mg/kg/injection, schedule: Q01DX005 (ip), vehicle: Klucel (hydroxypropylcellulose) (HPC)) 156 % of control; (dose: 100.0 mg/kg/injection, schedule: Q01DX005 (ip), vehicle: Klucel (hydroxypropylcellulose) (HPC)) 195 % of control.
With `N[C@H]1CCC[C@@H](O)C1O` (some centres not stated), the T/C is 103 % of control under setting [8], 100 % of control under setting [9] and 109 % of control under setting [10].
In the case of `CSC(=S)N/N=C/c1cccn1C`, the T/C by setting is: under setting [2], 100 % of control; under setting [3], 91 % of control; under setting [4], 115 % of control.
Turning to `COc1cc(/C=C/[N+](=O)[O-])c(OC)cc1Br`, under setting [11], the T/C was 122 % of control.
With `CN1C(c2ccccc2)=C(C#N)C(=O)CC(c2cccs2)N1C` (configuration not stated), the T/C by setting is: under setting [12], 96 % of control; under setting [13], 99 % of control; under setting [14], 86 % of control.
As to `CNC(=O)c1ccc[n+](C2OC(COC(C)=O)C(OC(C)=O)C2OC(C)=O)c1` (configuration not stated), the T/C runs as follows: under setting [5], 100 % of control; under setting [6], 97 % of control; under setting [7], 91 % of control.
For the compound `c1cc2c3c(cccc3c1)C(C1Cc3cccc4cccc1c34)C2` (configuration not stated), the T/C was 97 % of control (dose: 50.0 mg/kg/injection, schedule: Q01DX009 (ip), vehicle: Klucel (hydroxypropylcellulose) (HPC)); 100 % of control (dose: 100.0 mg/kg/injection, schedule: Q01DX009 (ip), vehicle: Klucel (hydroxypropylcellulose) (HPC)); 88 % of control (dose: 200.0 mg/kg/injection, schedule: Q01DX009 (ip), vehicle: Klucel (hydroxypropylcellulose) (HPC)).
In the case of `COC1=C2CC(C)CC(OC)C(O)C(C)/C=C(\C)C(OC(N)=O)C(OC)/C=C\C=C(/C)C(=O)NC(=C(C=NC(C)(C)C)C1=O)C2=O` (configuration not stated), the T/C under setting [12] is 124 % of control.
`O=C(c1ccccc1)C(NCc1ccccc1)(Nc1ccccn1)c1ccccc1` (configuration not stated): the T/C reads like this: (dose: 15.0 mg/kg/injection, schedule: Q01DX005 (ip), vehicle: Klucel (hydroxypropylcellulose) (HPC)) 102 % of control; (dose: 30.0 mg/kg/injection, schedule: Q01DX005 (ip), vehicle: Klucel (hydroxypropylcellulose) (HPC)) 100 % of control; (dose: 60.0 mg/kg/injection, schedule: Q01DX005 (ip), vehicle: Klucel (hydroxypropylcellulose) (HPC)) 100 % of control and 88 % of control; (dose: 240.0 mg/kg/injection, schedule: Q01DX005 (ip), vehicle: Klucel (hydroxypropylcellulose) (HPC)) 89 % of control.
On to `CCc1nc(N)nc(N)c1-c1ccc(Cl)c(N=CN(C)C)c1`, for which the T/C is 102 % of control under setting [12], 108 % of control under setting [13] and 108 % of control under setting [14].
On to `Nc1nc(-c2ccccn2)cc2c(Cl)cccc12`, for which the T/C under setting [12] is 86 % of control, the T/C under setting [13] was 115 % of control and the T/C under setting [14] is 97 % of control.
